Experimental data as given in patent US20230348424A1, “HETEROCYCLIC COMPOUNDS AND METHODS OF USE” (Schrödinger, Inc., priority 2022, published 2023).

Biological target: SOS1:KRAS (G12C) interaction (Homo sapiens (Human), UniProt Q07889)
Assay: SOS1 KRas(G12C) FRET Assay
Format: binding
Settings: 0.5 nM His10-SOS1 (res. 564-1049), 2.5 nM GST-KRAS G12C (res. 1-169), 2 hrs at RT
Summary of the method: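 GST-KRAS G12C (res. 1-169) at 2.5 nM and His10-SOS1 (res. 564-1049) at 0.5 nM, final, in PBS with 0.1% BSA, 5 mM MgCl2, 100 mM KF, 5 mM DTT and 0.5% DMSO. After 2 h at RT, FRET read at 665/615 nm and normalized to DMSO and no-SOS1 controls. IC50 by non-linear regression.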

Sequence of SOS1:KRAS (G12C) interaction (Q07889 564-1049, stated change not applied): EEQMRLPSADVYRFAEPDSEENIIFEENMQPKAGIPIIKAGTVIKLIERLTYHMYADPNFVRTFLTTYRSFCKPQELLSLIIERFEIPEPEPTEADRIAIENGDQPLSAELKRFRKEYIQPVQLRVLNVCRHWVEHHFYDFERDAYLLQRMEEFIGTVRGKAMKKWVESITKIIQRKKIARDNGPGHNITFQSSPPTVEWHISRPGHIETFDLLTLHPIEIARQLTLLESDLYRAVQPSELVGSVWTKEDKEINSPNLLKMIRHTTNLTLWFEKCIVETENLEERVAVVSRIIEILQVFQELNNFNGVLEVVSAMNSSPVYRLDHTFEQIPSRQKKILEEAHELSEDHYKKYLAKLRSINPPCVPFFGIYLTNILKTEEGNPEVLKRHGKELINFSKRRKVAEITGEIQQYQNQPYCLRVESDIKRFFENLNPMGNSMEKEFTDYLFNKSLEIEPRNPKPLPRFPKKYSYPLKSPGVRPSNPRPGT

IC50	SMILES
13 nM	C[C@@H](NC(=O)c1cn(C23CC(C2)C3)c(=O)cc1N[C@@H]1[C@@H]2C[C@H]1CN(C)C2)c1cccc(C(F)F)c1F [Example 208, 1-(bicyclo[1.1.1]pentan-1-yl)-N-((R)-1-(3-(difluoromethyl)-2-fluorophenyl)ethyl)-4-(((1R,5S,6s)-3-methyl-3-azabicyclo[3.1.1]heptan-6-yl)amino)-6-oxo-1,6-dihydropyridine-3-carboxamide]
63.4 nM	C[C@@H](NC(=O)c1cn(C23CC(C2)C3)c(=O)cc1N[C@H]1[C@@H]2C[C@H]1CN(C)C2)c1cccc(C(F)F)c1F [Example 209, 1-(bicyclo[1.1.1]pentan-1-yl)-N-((R)-1-(3-(difluoromethyl)-2-fluorophenyl)ethyl)-4-(((1R,5S,6r)-3-methyl-3-azabicyclo[3.1.1]heptan-6-yl)amino)-6-oxo-1,6-dihydropyridine-3-carboxamide]
7.4 nM	C[C@@H](NC(=O)c1cn(C23CC(C2)C3)c(=O)cc1NC1CCN(C)CC1)c1cccc(C(F)F)c1F [Example 217, (R)-1-(bicyclo[1.1.1]pentan-1-yl)-N-(1-(3-(difluoromethyl)-2-fluorophenyl)ethyl)-4-((1-methylpiperidin-4-yl)amino)-6-oxo-1,6-dihydropyridine-3-carboxamide]
38.2 nM	C[C@@H](NC(=O)c1cn(C2(C(F)F)CC2)c(=O)cc1NC[C@H]1CCCN1C)c1cccc(C(F)F)c1F [Example 221, N-((R)-1-(3-(difluoromethyl)-2-fluorophenyl)ethyl)-1-(1-(difluoromethyl)cyclopropyl)-4-((((R)-1-methylpyrrolidin-2-yl)methyl)amino)-6-oxo-1,6-dihydropyridine-3-carboxamide]
27.6 nM	C[C@@H](NC(=O)c1cn(C2(C)CC(F)(F)C2)c(=O)cc1NC1CCN(C)CC1)c1cccc(C(F)F)c1F [Example 222, (R)-1-(3,3-difluoro-1-methylcyclobutyl)-N-(1-(3-(difluoromethyl)-2-fluorophenyl)ethyl)-4-((1-methylpiperidin-4-yl)amino)-6-oxo-1,6-dihydropyridine-3-carboxamide]
14.1 nM	C[C@@H](NC(=O)c1cn(C2(C(F)(F)F)CCCC2)c(=O)cc1NC1CCN(C)CC1)c1cccc(C(F)F)c1F [Example 223, (R)-N-(1-(3-(difluoromethyl)-2-fluorophenyl)ethyl)-4-((1-methylpiperidin-4-yl)amino)-6-oxo-1-(1-(trifluoromethyl)cyclopentyl)-1,6-dihydropyridine-3-carboxamide]

The next lines start with the molecule.

SMILES	IC50
C[C@@H](NC(=O)c1cn(C23COC(C2)C3)c(=O)cc1N[C@H]1[C@@H]2CN(C)C[C@@H]21)c1cccc(C(F)F)c1F [Example 192]	12.9 nM
C[C@@H](NC(=O)c1cn(C23CC(C2)C3)c(=O)cc1N[C@H]1[C@@H]2CN(C)C[C@@H]21)c1cccc(C(F)(F)F)c1F [Example 205, 1-(bicyclo[1.1.1]pentan-1-yl)-N-((R)-1-(2-fluoro-3-(trifluoromethyl)phenyl)ethyl)-4-(((1R,5S,6s)-3-methyl-3-azabicyclo[3.1.0]hexan-6-yl)amino)-6-oxo-1,6-dihydropyridine-3-carboxamide]	26.6 nM
C[C@@H](NC(=O)c1cn(C2C(F)(F)C23CC3)c(=O)cc1N[C@H]1[C@@H]2CN(C)C[C@@H]21)c1cccc(C(F)F)c1F (stereo partly drawn) [Example 206, N-((R)-1-(3-(difluoromethyl)-2-fluorophenyl)ethyl)-1-(2,2-difluorospiro[2.2]pentan-1-yl)-4-(((1R,5S,6s)-3-methyl-3-azabicyclo[3.1.0]hexan-6-yl)amino)-6-oxo-1,6-dihydropyridine-3-carboxamide]	137 nM
C[C@@H](NC(=O)c1cn(C2CCC2)c(=O)cc1N[C@H]1[C@@H]2CN(C)C[C@@H]21)c1cccc(C(F)(F)F)c1F [Example 207, 1-cyclobutyl-N-((R)-1-(2-fluoro-3-(trifluoromethyl)phenyl)ethyl)-4-(((1R,5S,6s)-3-methyl-3-azabicyclo[3.1.0]hexan-6-yl)amino)-6-oxo-1,6-dihydropyridine-3-carboxamide]	9.3 nM
C[C@@H](NC(=O)c1cn([C@H]2CCC2(F)F)c(=O)cc1N[C@H]1[C@@H]2CC[C@H]1CN(C)C2)c1cccc(C(F)F)c1F [Example 210, 1-((S)-2,2-difluorocyclobutyl)-N-((R)-1-(3-(difluoromethyl)-2-fluorophenyl)ethyl)-4-(((1R,5S,8r)-3-methyl-3-azabicyclo[3.2.1]octan-8-yl)amino)-6-oxo-1,6-dihydropyridine-3-carboxamide]	4.3 nM
C[C@@H](NC(=O)c1cn([C@H]2CCC2(F)F)c(=O)cc1N[C@@H]1[C@@H]2CC[C@H]1CN(C)C2)c1cccc(C(F)F)c1F [Example 211, 1-((S)-2,2-difluorocyclobutyl)-N-((R)-1-(3-(difluoromethyl)-2-fluorophenyl)ethyl)-4-(((1R,5S,8s)-3-methyl-3-azabicyclo[3.2.1]octan-8-yl)amino)-6-oxo-1,6-dihydropyridine-3-carboxamide]	29.4 nM
C[C@@H](NC(=O)c1cn([C@@H]2CCC2(F)F)c(=O)cc1N[C@@H]1[C@@H]2CC[C@H]1CN(C)C2)c1cccc(C(F)F)c1F [Example 212, 1-((R)-2,2-difluorocyclobutyl)-N-((R)-1-(3-(difluoromethyl)-2-fluorophenyl)ethyl)-4-(((1R,5S,8s)-3-methyl-3-azabicyclo[3.2.1]octan-8-yl)amino)-6-oxo-1,6-dihydropyridine-3-carboxamide]	38.2 nM
C[C@@H](NC(=O)c1cn([C@@H]2CCC2(F)F)c(=O)cc1N[C@H]1[C@@H]2CC[C@H]1CN(C)C2)c1cccc(C(F)F)c1F [Example 213, 1-((R)-2,2-difluorocyclobutyl)-N-((R)-1-(3-(difluoromethyl)-2-fluorophenyl)ethyl)-4-(((1R,5S,8r)-3-methyl-3-azabicyclo[3.2.1]octan-8-yl)amino)-6-oxo-1,6-dihydropyridine-3-carboxamide]	149 nM
C[C@@H](NC(=O)c1cn(C23CC(C2)C3)c(=O)cc1N[C@@H]1C[C@@H]2CN(C)C[C@@H]2C1)c1cccc(C(F)F)c1F [Example 216, 1-(bicyclo[1.1.1]pentan-1-yl)-N-((R)-1-(3-(difluoromethyl)-2-fluorophenyl)ethyl)-4-(((3aR,5r,6aS)-2-methyloctahydrocyclopenta[c]pyrrol-5-yl)amino)-6-oxo-1,6-dihydropyridine-3-carboxamide]	19.1 nM
C[C@@H](NC(=O)c1cn(C23COC(C)(C2)C3)c(=O)cc1NC1CCN(C)CC1)c1cccc(C(F)F)c1F [Example 220, (R)-N-(1-(3-(difluoromethyl)-2-fluorophenyl)ethyl)-1-(1-methyl-2-oxabicyclo[2.1. 1]hexan-4-yl)-4-((1-methylpiperidin-4-yl)amino)-6-oxo-1,6-dihydropyridine-3-carboxamide]	26.8 nM
C[C@@H](NC(=O)c1cn(C2(C)CC(F)(F)C2)c(=O)cc1N[C@H]1[C@@H]2CN(C)C[C@@H]21)c1cccc(C(F)F)c1F [Example 224, 1-(3,3-difluoro-1-methylcyclobutyl)-N-((R)-1-(3-(difluoromethyl)-2-fluorophenyl)ethyl)-4-(((1R,5S,6s)-3-methyl-3-azabicyclo[3.1.0]hexan-6-yl)amino)-6-oxo-1,6-dihydropyridine-3-carboxamide]	46.8 nM
